Experiments:
[1] = Cytotoxicity against African green monkey Vero cells assessed as growth inhibition after 48 hrs; format: cell-based; conditions: chlorocebus sabaeus, read-out: TC50
Coxsackievirus B3 = experiment: Antivirus activity against Coxsackievirus B3 infected in African green monkey vero cells assessed as inhibition of virus-induced cytopathic effect; format: functional, organism-based; conditions: Enterovirus B
[2] = Selectivity index, ratio of TC50 for African green monkey vero cells to IC50 for Coxsackievirus B3; format: toxicity, cell-based; conditions: read-out: Selectivity Index

IC50 (Coxsackievirus B3) [µM]	SMILES	CC50 at 48 h [1] [µM]	selectivity ratio [2]
8.58	COC(=O)CCC[C@@H]1[C@H]2CCCN3CCC[C@@H](CN1S(=O)(=O)c1ccc(C(C)=O)cc1)[C@@H]23	193	22.5
> 142	CC(O)c1ccc(S(=O)(=O)N2C[C@@H]3CCCN4CCC[C@@H]([C@H]34)[C@H]2CCCCO)cc1 (some centres undefined)	> 425	–
> 39.3	COC(=O)CCC[C@@H]1[C@H]2CCCN3CCC[C@@H](CN1S(=O)(=O)c1ccc(/C(C)=N/O)cc1)[C@@H]23	53.9	–
> 22.2	CC(=O)c1ccc(S(=O)(=O)N2C[C@@H]3CCCN4CCC[C@@H]([C@H]34)[C@H]2CCCCN2CCN(C)CC2)cc1	–	–
14.7	COC(=O)CCC[C@@H]1[C@H]2CCCN3CCC[C@@H](CN1S(=O)(=O)c1ccc(OC(F)(F)F)cc1)[C@@H]23	191	13
8.41	COCCCC[C@@H]1[C@H]2CCCN3CCC[C@@H](CN1S(=O)(=O)c1cccc(C#N)c1)[C@@H]23	332	39.5
> 22.2	CC(=O)c1ccc(S(=O)(=O)N2C[C@@H]3CCCN4CCC[C@@H]([C@H]34)[C@H]2CCCCN2CCOCC2)cc1	–	–
> 22.2	CN1CCN(CCCC[C@@H]2[C@H]3CCCN4CCC[C@@H](CN2S(=O)(=O)c2cccc(C#N)c2)[C@@H]34)CC1	116	–
> 22.2	CC(=O)c1ccc(S(=O)(=O)N2C[C@@H]3CCCN4CCC[C@@H]([C@H]34)[C@H]2CCCCN(C)C)cc1	–	–
3.95	O=C(CCC[C@@H]1[C@H]2CCCN3CCC[C@@H](CN1S(=O)(=O)c1cccc(C(F)(F)F)c1)[C@@H]23)N1CCOCC1	156	38.9
> 22.2	CN(C)CCCC[C@@H]1[C@H]2CCCN3CCC[C@@H](CN1S(=O)(=O)c1ccc(C#N)cc1)[C@@H]23	96.2	–
> 22.2	CN1CCN(CCCC[C@@H]2[C@H]3CCCN4CCC[C@@H](CN2S(=O)(=O)c2ccc(C#N)cc2)[C@@H]34)CC1	–	–
> 127	CC(=O)c1ccc(S(=O)(=O)N2C[C@@H]3CCCN4CCC[C@@H]([C@H]34)[C@H]2CCCC(=O)N2CCC2)cc1	> 382	–
7.19	O=C(CCC[C@@H]1[C@H]2CCCN3CCC[C@@H](CN1S(=O)(=O)c1ccc(OC(F)(F)F)cc1)[C@@H]23)N1CCOCC1	162	22.5
10	O=S(=O)(c1ccc(OC(F)(F)F)cc1)N1C[C@@H]2CCCN3CCC[C@@H]([C@H]23)[C@H]1CCCCO	101	10.1
> 118	CC(=O)c1ccc(S(=O)(=O)N2C[C@@H]3CCCN4CCC[C@@H]([C@H]34)[C@H]2CCCC(=O)N2CCOCC2)cc1	> 361	–
> 7.4	CN1CCN(CCCC[C@@H]2[C@H]3CCCN4CCC[C@@H](CN2S(=O)(=O)c2cccc(C(F)(F)F)c2)[C@@H]34)CC1	51.5	–
> 127	O=C(O)CCC[C@@H]1[C@H]2CCCN3CCC[C@@H](CN1S(=O)(=O)c1ccc(OC(F)(F)F)cc1)[C@@H]23	> 380	–
4.33	NC(=O)CCC[C@@H]1[C@H]2CCCN3CCC[C@@H](CN1S(=O)(=O)c1cccc(C(F)(F)F)c1)[C@@H]23	177	40.8
> 22.2	N#Cc1ccc(S(=O)(=O)N2C[C@@H]3CCCN4CCC[C@@H]([C@H]34)[C@H]2CCCCN2CCOCC2)cc1	96.2	–
2.56	CNC(=O)CCC[C@@H]1[C@H]2CCCN3CCC[C@@H](CN1S(=O)(=O)c1cccc(C(F)(F)F)c1)[C@@H]23	172	67.2
5.58	O=C(CCC[C@@H]1[C@H]2CCCN3CCC[C@@H](CN1S(=O)(=O)c1ccc(OC(F)(F)F)cc1)[C@@H]23)N1CCC1	170	21.2
> 22.2	CN1CCN(CCCC[C@@H]2[C@H]3CCCN4CCC[C@@H](CN2S(=O)(=O)c2ccc(S(C)(=O)=O)cc2)[C@@H]34)CC1	–	–
> 138	CC(=O)c1ccc(S(=O)(=O)N2C[C@@H]3CCCN4CCC[C@@H]([C@H]34)[C@H]2CCCC(=O)O)cc1	> 413	–
2.49	CN(C)C(=O)CCC[C@@H]1[C@H]2CCCN3CCC[C@@H](CN1S(=O)(=O)c1cccc(C(F)(F)F)c1)[C@@H]23	168	67.2
> 22.2	COC(=O)c1ccc(S(=O)(=O)N2C[C@@H]3CCCN4CCC[C@@H]([C@H]34)[C@H]2CCCCN2CCN(C)CC2)cc1	–	–
2.74	CN(C)C(=O)CCC[C@@H]1[C@H]2CCCN3CCC[C@@H](CN1S(=O)(=O)c1ccc(OC(F)(F)F)cc1)[C@@H]23	174	63.3
1.31	COCCCC[C@@H]1[C@H]2CCCN3CCC[C@@H](CN1S(=O)(=O)c1cccc(C(F)(F)F)c1)[C@@H]23	75.4	57.4
> 130	CC(=O)c1ccc(S(=O)(=O)N2C[C@@H]3CCCN4CCC[C@@H]([C@H]34)[C@H]2CCCC(=O)N(C)C)cc1	> 391	–
